In patent US20240294545A1 (CSPC Zhongqi Pharmaceutical Technology (Shijiazhuang) Co., …, priority 2020, published 2024):
Read-outs that look alike come from different tables or passages of the source. Marks after values point to notes of the source that are not given here.

Tests used:
ATM = ATM (Homo sapiens (Human), UniProt Q13315); assay: Caliper mobility shift assay for ATM; type: biochemical; details: read-out: IC50 of inhibitory activity on ATM kinase
Procedure: 1.2 Determination of the Inhibitory Activities of Compounds on ATM: Caliper Mobility Shift Assay for ATM
To a 96-well plate, 98 μL of DMSO and 2 μL of the 10 mM stock solution were added and mixed evenly so that the concentration of the solution was 200 μM.
Based on the inhibitory rates of the compound at different concentrations, IC50 was calculated according to the formula: Y=Bottom+(Top−Bottom)/(1+(IC50/X)^HillSlope).

[1] = system: subcutaneous xenograft tumor of human glioblastoma LN-18; assay: LN-18 subcutaneous xenograft, combined with radiotherapy; type: in vivo, NOG mice; details: compound 5 mg/kg intragastric qd × 5 + IR 1 Gy, day 17
Procedure: 9 Efficacy Test of the Compounds of the Present Disclosure Combined with Radiotherapy on Inhibiting the Growth of Subcutaneous Xenograft Tumor of Human Glioblastoma LN-18
9.1 Experimental Animals: NOG Mice, SPF, Female, 18 to 22 g.
LN-18 tumor cells, DMEM medium:fetal bovine serum=95%:5%, accompanied by adding 100 U/mL penicillin and 100 μg/mL streptomycin, 37° C., 5% CO2.
LN18 tumor cells resuspended in serum-free DMEM medium were inoculated subcutaneously in the right costal region of experimental animals at 1.5*10^7/0.15 mL, and the animals were grouped when the tumor grew to 100 to 150 mm^3. Radiotherapy was performed 1 h after administration of compounds.
Tumor volume: The tumor volume was measured twice a week with a vernier caliper, and the long diameter and short diameter of tumor were measured. The tumor volume was calculated as follows: tumor volume (TV)=0.5×long diameter×short diameter^2. Tumor growth inhibitory rate (TGI %) was calculated according to the tumor volume. TVXn represents the mean tumor volume on day n of the treatment group, TVX0 represents the mean tumor volume on day 0 of the treatment group, TVMn represents the mean tumor volume on day n of the control group, and TVM0 represents the mean tumor volume on day 0 of the control group.

ATM-phosphorylated KAP1 = assay: Intracellular ATM-phosphorylated KAP1 level, ICW assay in MCF7 cells; type: cell-based, Human; details: for IC50: MCF7 cells, 2 h compound, 10 Gy irradiation, further 1 h, read-out: pKAP1 IC50; for inhibitory effect on ATM KAP phosphorylation, in words: cellular level, compared with AZD1390 as positive control
Procedure: 4 Inhibition on Intracellular ATM-Phosphorylated KAP1 Level by the Compounds of the Present Disclosure: ICW Assay
• Cell: Human breast cancer cell line MCF7 • Materials and reagents:
4.2 Experimental Procedures
• (1) Cell inoculation • MCF7 cells were inoculated on a 384-well plate, 10000 cells/well (25 μL/well), and cultured overnight at 37° C. with 5% CO2. • (2) Activity detection • 1) The compound was formulated into a 100 mM solution with DMSO and then sequentially diluted with a gradient of 1:3 to yield a total of 10 concentration gradients, wherein the maximum concentration was 100 μM. • 2) 25 nL of each of the compound solutions with gradient concentrations prepared in step 1) was added to each well of the cell plate (Corning #356663) by using I-DOT One, resulting in a final concentration of 100 nM (maximum dose). • 3) The cell plate containing compound was incubated at 37° C. with 5% CO2 for 2 h. After 2 h, the cell plate was irradiated with a dose of 10 Gy, and then further incubated for 1 h. • 4) 25 μL of 8% paraformaldehyde was added to each well, followed by incubating at room temperature for 20 min. • 5) The 8% paraformaldehyde was discarded, followed by adding 0.1% TrintonX-100 and incubating at room temperature for 30 min. • 6) Odessey blocking buffer was added at 50 μL/well, followed by incubating at room temperature for 1.5 h. • 7) The Odessey blocking buffer was discarded, and then a primary antibody (Phospho-KAP1, 1:2000 dilution) was added, followed by incubating overnight at 4° C. • 8) The primary antibody was removed, followed by washing with PBS+0.1% Tween 20 for 5 times. • 9) DNA dye DRAQ5 coated with a second antibody (IRDye 800CW Goat anti-Rabbit, 1:4000 dilution) was added, followed by incubating at room temperature for 1 h. • 10) The second antibody was removed, followed by washing with PBS+0.1% Tween 20 for 5 times. • 11) PBS+0.1% Tween 20 was sucked off with Odyssey. • (3) Data analysis • 1) the relative ratio of Channel 800/Channel 700 for each well was detected. • 2) % of KAP1 phosphorylation was calculated according to the following formula:
% of KAP1 phosphorylation=[(Ratiocmpd−(Ratio)Positive)/((Ratio)Vehicle−(Ratio)Positive]*100 • (Ratio)Positive: the mean value of the test values of each positive control well in the test cell plate; • (Ratio)Vehicle: the mean value of the test values of each negative control well in the test cell plate. • 3) the IC50 of each compound was calculated and the dose-effect curve was plotted: % of KAP1 phosphorylation and log of compound's concentration were fit by using Graphpad 8.0 so as to calculate the IC50.
[formula] • X: log of compound's concentration • Y: % of KAP1 phosphorylation

[2] = system: Human glioblastoma cell line LN-18; assay: LN18 cell proliferation combined with radiotherapy (CTG assay); type: cell-based; details: for IC50: LN18 cells, 1 Gy irradiation 1 h after compound, 6 days, CTG; for inhibitory effect on LN18 cell proliferation, in words: combined with radiotherapy, compared with AZD1390 as positive control;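 on IC50: readout is CTG luminescence proliferation not KAP1 phosphorylation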
Procedure: 5 Test of the Inhibitory Activities of the Compounds of the Present Disclosure Combined with Radiotherapy on LN18 Cell Proliferation
• Cell: Human glioblastoma cell line LN-18
5.2 Experimental Procedures
• (1) Cell inoculation • 1) The cell culture fluid was preheated at 37° C. • 2) A complete culture medium of LN18 cells was prepared, at a ratio of DMEM medium:FBS=95:5 (V/V). • 3) Cells were digested with trypsin, collected to serve as a cell suspension, and counted, the cell suspension was then added into a 96-well plate at 1500 cells/well and 100 μL of cell fluid/well, and three parallel wells were set. • 4) After inoculated in the plate, the cells were cultured overnight under the condition of 37° C. and 5% CO2. • (2) Compound addition and incubation • 1) AZD1390 and tested compounds, respectively, were sequentially diluted 5 times with DMSO, starting from the concentration of 10 mM and yielding the concentrations of 10, 2, 0.4, 0.08, 0.016, 0.0032, 0.00064, 0.000128, and 0.0000256 mM in turn. The compound solutions at the above concentrations were diluted 5000 times with the complete culture medium. The final 2× concentrations were in order 2000, 400, 80, 16, 3.2, 0.64, 0.128, 0.0256, and 0.00512 nM. The vehicle control was 0.02% DMSO culture fluid. • 2) A complete culture medium containing 100 μL of the compound solution was added to each well, and the final concentrations of the compounds in the wells were in order 1000, 200, 40, 8, 1.6, 0.32, 0.064, 0.0128, and 0.00256 nM. The 0.01% DMSO culture fluid was contained in the vehicle control well. After incubated with compound for 1 h, the cells were irradiated at a dose of 1 Gy. • 3) After irradiation, the plate was put into an incubator and incubated under the condition of 37° C. and 5% CO2 for 6 days. Then detection was performed by adopting CTG assay (100 μL of liquid from each well was sucked out and discarded, and 50 μL of CTG reagent was added to each well, and incubated at room temperature for 30 min, and the luminescence intensity was detected). • (3) Data analysis • 1) The Luminescence signal (RLU) of each well was detected. • 2) Proliferation inhibitory activity was calculated according to the formula: % inhibitory activity=RLUtreatment/RLUAvg(Vehicle)*100. 5.3 the Inhibitory Activities of Compounds of the Present Disclosure Combined with Radiotherapy on LN18 Cell Proliferation

[3] = Homo sapiens, light or radiation study
[4] = Homo sapiens, LN-18, light or radiation study

ATM, sequence (Q13315 whole entry): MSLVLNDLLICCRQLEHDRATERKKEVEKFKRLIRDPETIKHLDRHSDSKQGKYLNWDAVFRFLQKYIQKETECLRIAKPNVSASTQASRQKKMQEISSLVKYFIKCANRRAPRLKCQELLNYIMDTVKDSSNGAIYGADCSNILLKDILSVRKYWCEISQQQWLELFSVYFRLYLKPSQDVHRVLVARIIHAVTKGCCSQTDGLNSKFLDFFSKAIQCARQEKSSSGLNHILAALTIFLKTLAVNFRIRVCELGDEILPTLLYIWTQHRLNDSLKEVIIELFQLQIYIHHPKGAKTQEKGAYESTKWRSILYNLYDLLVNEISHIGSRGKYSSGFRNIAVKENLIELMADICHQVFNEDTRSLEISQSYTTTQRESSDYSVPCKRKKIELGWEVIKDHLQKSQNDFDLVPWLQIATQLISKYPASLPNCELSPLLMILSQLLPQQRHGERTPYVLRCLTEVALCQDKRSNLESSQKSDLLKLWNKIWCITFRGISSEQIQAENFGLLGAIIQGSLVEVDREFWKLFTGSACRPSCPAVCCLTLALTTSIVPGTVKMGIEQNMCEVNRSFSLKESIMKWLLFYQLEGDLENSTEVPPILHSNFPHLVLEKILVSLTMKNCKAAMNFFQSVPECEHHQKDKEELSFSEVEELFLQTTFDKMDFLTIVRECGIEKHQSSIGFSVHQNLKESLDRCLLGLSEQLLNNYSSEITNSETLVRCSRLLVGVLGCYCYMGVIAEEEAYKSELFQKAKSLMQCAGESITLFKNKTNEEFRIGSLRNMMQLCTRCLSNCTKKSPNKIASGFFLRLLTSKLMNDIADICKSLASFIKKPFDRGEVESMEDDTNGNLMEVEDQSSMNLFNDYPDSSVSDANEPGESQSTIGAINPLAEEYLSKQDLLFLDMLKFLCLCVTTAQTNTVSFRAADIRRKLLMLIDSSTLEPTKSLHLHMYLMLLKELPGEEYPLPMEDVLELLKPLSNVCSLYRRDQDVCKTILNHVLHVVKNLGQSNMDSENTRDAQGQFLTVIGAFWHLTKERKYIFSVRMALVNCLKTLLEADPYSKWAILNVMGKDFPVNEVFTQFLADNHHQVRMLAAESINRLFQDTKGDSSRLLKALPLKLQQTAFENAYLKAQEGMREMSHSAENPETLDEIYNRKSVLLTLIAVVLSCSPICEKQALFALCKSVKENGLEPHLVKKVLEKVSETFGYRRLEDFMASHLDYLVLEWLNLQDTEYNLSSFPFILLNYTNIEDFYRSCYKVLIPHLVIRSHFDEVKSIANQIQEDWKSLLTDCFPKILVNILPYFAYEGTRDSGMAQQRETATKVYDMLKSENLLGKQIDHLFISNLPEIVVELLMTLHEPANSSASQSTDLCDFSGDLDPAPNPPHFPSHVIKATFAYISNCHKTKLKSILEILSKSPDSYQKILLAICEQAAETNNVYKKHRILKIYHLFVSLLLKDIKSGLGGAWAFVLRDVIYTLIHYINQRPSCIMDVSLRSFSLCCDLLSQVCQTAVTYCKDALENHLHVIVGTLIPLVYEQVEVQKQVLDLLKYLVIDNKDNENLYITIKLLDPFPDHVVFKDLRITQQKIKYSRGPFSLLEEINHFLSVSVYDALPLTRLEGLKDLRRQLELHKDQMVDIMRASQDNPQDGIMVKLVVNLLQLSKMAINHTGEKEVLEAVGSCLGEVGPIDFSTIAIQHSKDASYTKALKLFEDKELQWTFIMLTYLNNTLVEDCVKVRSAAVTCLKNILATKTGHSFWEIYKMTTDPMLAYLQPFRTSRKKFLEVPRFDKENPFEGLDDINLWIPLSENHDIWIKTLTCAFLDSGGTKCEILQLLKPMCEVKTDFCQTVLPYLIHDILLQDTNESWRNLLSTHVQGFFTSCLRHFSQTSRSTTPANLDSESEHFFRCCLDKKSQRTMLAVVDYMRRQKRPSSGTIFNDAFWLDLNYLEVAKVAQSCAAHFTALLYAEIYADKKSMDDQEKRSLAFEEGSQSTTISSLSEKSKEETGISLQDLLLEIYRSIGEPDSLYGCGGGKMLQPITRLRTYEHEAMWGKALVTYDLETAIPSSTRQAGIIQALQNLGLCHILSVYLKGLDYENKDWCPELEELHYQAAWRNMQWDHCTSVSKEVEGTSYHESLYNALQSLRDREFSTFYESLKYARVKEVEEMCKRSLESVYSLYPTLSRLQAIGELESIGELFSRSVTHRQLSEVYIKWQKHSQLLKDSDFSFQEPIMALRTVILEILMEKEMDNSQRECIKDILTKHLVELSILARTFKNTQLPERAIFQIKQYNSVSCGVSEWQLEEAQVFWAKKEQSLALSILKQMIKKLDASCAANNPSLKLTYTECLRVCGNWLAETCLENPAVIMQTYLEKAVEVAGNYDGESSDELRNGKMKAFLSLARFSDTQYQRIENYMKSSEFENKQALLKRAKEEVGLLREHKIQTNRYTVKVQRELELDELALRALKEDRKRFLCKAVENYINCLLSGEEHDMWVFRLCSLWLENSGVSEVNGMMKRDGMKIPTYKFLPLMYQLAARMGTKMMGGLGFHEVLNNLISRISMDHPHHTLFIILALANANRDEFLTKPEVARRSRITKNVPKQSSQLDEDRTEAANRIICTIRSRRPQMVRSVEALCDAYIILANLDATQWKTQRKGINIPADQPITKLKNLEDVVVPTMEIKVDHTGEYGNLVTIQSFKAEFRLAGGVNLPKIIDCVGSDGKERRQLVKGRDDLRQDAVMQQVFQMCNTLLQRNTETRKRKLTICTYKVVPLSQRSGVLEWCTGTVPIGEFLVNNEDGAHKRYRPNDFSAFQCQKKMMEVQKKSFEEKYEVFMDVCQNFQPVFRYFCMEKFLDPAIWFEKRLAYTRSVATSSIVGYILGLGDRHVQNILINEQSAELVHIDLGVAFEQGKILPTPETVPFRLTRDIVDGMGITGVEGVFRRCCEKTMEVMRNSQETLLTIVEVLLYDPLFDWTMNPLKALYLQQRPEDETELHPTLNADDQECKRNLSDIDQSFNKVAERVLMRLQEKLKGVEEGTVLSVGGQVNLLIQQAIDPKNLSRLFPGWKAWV

SMILES | IC50 (ATM) [nM] | IC50 (ATM-phosphorylated KAP1; [3]) [nM] | IC50 [2, 4] [nM] | IC50 (ATM-phosphorylated KAP1) [nM] | IC50 [2] [nM] | D 17 TGI [1] [%] | D 17 TV (MEAN ± SD) [1] | inhibitory effect on ATM KAP phosphorylation, in words (ATM-phosphorylated KAP1) | inhibitory effect on LN18 cell proliferation, in words [2]
C[C@H]1COc2c(-c3ccc(OCCCN4CCCCC4)nc3)ccc3ncc4c(c23)n1c(=O)n4C [Example A-177, (S)-2,10-dimethyl-7-(6-(3-(piperidin-1-yl)propoxy)pyridin-3-yl)-9,10-dihydro-8-oxa-2,4,10a-triazanaphtho[2,1,8-cde]azulen-1(2H)-one] | 0.25 | 0.61 | 5.22 | – | – | 77.9 | 338 ± 67***^ mm^3 | – | –
C[C@H]1COc2c(-c3ccc(OCCCN4CCC5(CC4)CC5)nc3)ccc3ncc4c(c23)n1c(=O)n4C [Example A-183, (S)-7-(6-(3-(6-azaspiro[2.5]octan-6-yl)propoxy)pyridin-3-yl)-2,10-dimethyl-9,10-dihydro-8-oxa-2,4,10a-triazanaphtho[2,1,8-cde]azulen-1(2H)-one] | 0.23 | 0.22 | 1.39 | – | – | 85.7 | 269 ± 89***^# mm^3 | higher than that of AZD1390 | higher than that of AZD1390
CC[C@H]1CNc2c(-c3ccc(OCCCN4CCCCC4)nc3)ccc3ncc4c(c23)n1c(=O)n4C [Example A-203, (S)-10-ethyl-2-methyl-7-(6-(3-(piperidin-1-yl)propoxy)pyridin-3-yl)-2,8,9,10-tetrahydro-1H-2,4,8,10a-tetraazanaphtho[2,1,8-cde]azulen-1(2H)-one] | 0.54 | – | – | 0.83 | 5.66 | 71.4 | 396 ± 121*** mm^3 | – | –
CC1CCN(CCCOc2ccc(-c3ccc4ncc5c6c4c3NC[C@H](C)n6c(=O)n5C)cn2)CC1 [Example A-211, (S)-2,10-dimethyl-7-(6-(3-(4-methylpiperidin-1-yl)propoxy)pyridin-3-yl)-2,8,9,10-tetrahydro-1H-2,4,8,10a-tetraazanaphtho[2,1,8-cde]azulen-1(2H)-one] | 0.33 | – | – | 0.33 | 2.71 | – | – | higher than that of AZD1390 | higher than that of AZD1390
C[C@H]1CNc2c(-c3ccc(OCCCN4CCC(C)(C)CC4)nc3)ccc3ncc4c(c23)n1c(=O)n4C [Example A-212, (S)-7-(6-(3-(4,4-dimethylpiperidin-1-yl)propoxy)pyridin-3-yl)-2,10-dimethyl-2,8,9,10-tetrahydro-1H-2,4,8,10a-tetraazanaphtho[2,1,8-cde]azulen-1(2H)-one] | 0.37 | – | – | 0.37 | 1.48 | – | – | higher than that of AZD1390 | higher than that of AZD1390

Further lines, with some results ahead:

IC50 (ATM) [nM] | IC50 (ATM-phosphorylated KAP1; [3]) [nM] | IC50 [2, 4] [nM] | IC50 (ATM-phosphorylated KAP1) [nM] | IC50 [2] [nM] | SMILES | D 17 TGI [1] [%] | D 17 TV (MEAN ± SD) [1] | inhibitory effect on ATM KAP phosphorylation, in words (ATM-phosphorylated KAP1) | inhibitory effect on LN18 cell proliferation, in words [2]
0.37 | 0.9 | 6.83 | – | – | Cn1c(=O)n2c3c4c(c(-c5ccc(OCCCN6CCCCC6)nc5)ccc4ncc31)OCC21CC1 [Example A-68, 2-methyl-7-(6-(3-(piperidin-1-yl)propoxy)pyridin-3-yl)-2,9-dihydro-1H-spiro[8-oxa-2,4,10a-triazanaphtho[2,1,8-cde]azulene-10,1′-cyclopropan]-1-one] | 83.9 | 285 ± 61***^# mm^3 | – | –
0.25 | 0.33 | 3.84 | – | – | C[C@H]1COc2c(-c3ccc(OCCCN4CCC5(CC4)COC5)nc3)ccc3ncc4c(c23)n1c(=O)n4C [Example A-184, (S)-7-(6-(3-(2-oxa-7-azaspiro[3.5]nonan-7-yl)propoxy)pyridin-3-yl)-2,10-dimethyl-9,10-dihydro-8-oxa-2,4,10a-triazanaphtho[2,1,8-cde]azulen-1(2H)-one] | – | – | higher than that of AZD1390 | –
0.44 | – | – | 0.64 | 5.93 | C[C@H]1CNc2c(-c3ccc(OCCCN4CCCCC4)nc3)ccc3ncc4c(c23)n1c(=O)n4C [Example A-198, (S)-2,10-dimethyl-7-(6-(3-(piperidin-1-yl)propoxy)pyridin-3-yl)-2,8,9,10-tetrahydro-1H-2,4,8,10a-tetraazanaphtho[2,1,8-cde]azulen-1(2H)-one] | 79.3 | 326 ± 77***^# mm^3 | – | –
